From patent publication US20220144812A1, “QUINOLINE DERIVATIVES AND THEIR USE FOR THE TREATMENT OF CANCER” (Epizyme, Inc., priority 2019, published 2022)
Read-outs that look alike come from different tables or passages of the source.

Key:
[1] = molecular target: T1, CREBBP (1084-1701) (Homo sapiens, UniProt Q92793); assay: Biochemical assay for CREBBP (1084-1701), SAMDI; conditions: SAMDI, read-out: CREBBP Biochemistry IC50
T1 construct: measured in the following biochemical assay using CREBBP (1084-1701); purchased
T1 sequence (Q92793 1084-1701): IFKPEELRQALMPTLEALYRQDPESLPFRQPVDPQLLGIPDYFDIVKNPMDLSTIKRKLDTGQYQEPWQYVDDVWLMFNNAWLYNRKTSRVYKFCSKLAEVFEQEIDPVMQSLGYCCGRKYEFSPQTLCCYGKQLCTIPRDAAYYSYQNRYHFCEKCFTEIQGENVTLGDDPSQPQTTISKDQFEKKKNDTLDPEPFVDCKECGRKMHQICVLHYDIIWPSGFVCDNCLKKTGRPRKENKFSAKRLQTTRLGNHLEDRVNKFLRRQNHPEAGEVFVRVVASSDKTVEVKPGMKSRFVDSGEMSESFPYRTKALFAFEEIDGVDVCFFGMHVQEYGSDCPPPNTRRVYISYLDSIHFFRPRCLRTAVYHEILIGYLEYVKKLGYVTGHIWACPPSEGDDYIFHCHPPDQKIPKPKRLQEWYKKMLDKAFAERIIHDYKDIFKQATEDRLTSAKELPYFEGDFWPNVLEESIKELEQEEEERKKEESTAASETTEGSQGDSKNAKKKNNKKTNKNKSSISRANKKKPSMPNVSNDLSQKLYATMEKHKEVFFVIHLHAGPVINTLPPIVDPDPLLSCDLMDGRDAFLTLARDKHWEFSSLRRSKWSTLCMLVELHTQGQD
How it was run: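 Acetyltransferase activity measured by SAMDI mass spectrometry after capture on biochip. Enzyme sat with compound 30 min at RT before acetyl-CoA and biotinylated H3 11-25 (K14R, K23R) peptide were added for 30 min at RT. Formic acid quench, bicarbonate neutralisation; IC50 values reported.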

[2] = test system: H3K18Ac in HB-CLS-2 cells; assay: H3K18AC in-cell western (ICW) assay; type: cell-based; conditions: H3K18Ac in-cell western, HB-CLS-2 cells; read-out: CREBBP ICW IC50
How it was run: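 In-cell western: after methanol fixation, blocking, overnight 4° C anti-H3K18Ac staining, then 800CW secondary plus DRAQ5 for DNA content, integrated intensities were scanned at 800 and 700 nm. Before this, compound exposure lasted 2 hr at 37° C in HB-CLS-2 cells plated 16–24 hours earlier. Values expressed as IC50 (μM).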

[3] = test system: 647V cells; assay: High throughput proliferation (HTP) assay; type: cell-based; conditions: high throughput proliferation, 647V cells, read-out: CREBBP HTP IC50
How it was run: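 Proliferation IC50 (micromolar) derived from a 7-day CellTiter-Glo viable-cell readout in 647V cells exposed, in triplicate, to rising compound concentrations; cells grown in DMEM plus 15% heat-inactivated FBS at 37° C under 5% CO2.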

[4] = molecular target: T2, EP300 (P300(1048-1664)) (Homo sapiens, UniProt Q09472); assay: Biochemical assay for EP300, SAMDI; conditions: EP300, SAMDI; read-out: EP300 Biochemistry IC50
T2 construct: P300(1048-1664)
T2 sequence (Q09472 1048-1664): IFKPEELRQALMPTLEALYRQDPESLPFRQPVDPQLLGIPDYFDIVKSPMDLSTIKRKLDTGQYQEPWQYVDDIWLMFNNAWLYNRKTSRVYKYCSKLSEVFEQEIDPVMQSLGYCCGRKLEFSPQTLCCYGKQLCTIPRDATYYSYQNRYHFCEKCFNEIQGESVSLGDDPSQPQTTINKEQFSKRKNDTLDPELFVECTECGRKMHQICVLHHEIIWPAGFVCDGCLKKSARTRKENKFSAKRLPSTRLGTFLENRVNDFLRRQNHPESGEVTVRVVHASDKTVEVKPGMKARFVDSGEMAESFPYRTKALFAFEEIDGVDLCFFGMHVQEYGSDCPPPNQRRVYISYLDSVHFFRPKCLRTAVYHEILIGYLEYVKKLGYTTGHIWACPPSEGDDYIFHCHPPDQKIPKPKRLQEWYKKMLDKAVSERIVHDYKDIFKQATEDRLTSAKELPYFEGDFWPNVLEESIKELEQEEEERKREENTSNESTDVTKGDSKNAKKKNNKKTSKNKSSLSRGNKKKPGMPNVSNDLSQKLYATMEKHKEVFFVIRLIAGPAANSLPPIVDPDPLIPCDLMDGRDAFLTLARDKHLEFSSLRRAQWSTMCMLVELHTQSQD
Description: The following example describes materials and methods relating to a biochemical assay for EP300. IC50 values (micromolar (μM)) are summarized in Table 1, Table 2, and Table 3 under the column labeled: “EP300 Biochemistry IC50 (micromolar).”

CCn1ncc(CN(C)C(=O)c2nc(-c3cc(Cl)cc(CNC4CCNCC4)c3)nc3ccc(Cl)cc23)c1C [Compound 394] gave an IC50 [1] of 2 µM, an IC50 [2] of 5.4 µM and an IC50 ([3]; Homo sapiens, 647-V) of 4.2 µM. It also gave an IC50 [4] of 3.8 µM.
In the case of CCn1ncc(CN(C)C(=O)c2cc(-c3ccc(NCC(=O)NC)c(C)n3)nc3ccc(Cl)cc23)c1C [Compound 395], the IC50 [1] is reported as 0.037 µM, the IC50 [2] is reported as 0.27 µM and the IC50 ([3]; Homo sapiens, 647-V) is reported as 0.41 µM. It also gave an IC50 [4] of 0.037 µM.
Compound CCn1ncc(CN(C)C(=O)c2nc(-c3cc(C(=O)Nc4ccccc4)n(C)n3)nc3ccc(Cl)cc23)c1C [Compound 396] has an IC50 [1] of 50 µM, an IC50 [2] of 20 µM and an IC50 ([3]; Homo sapiens, 647-V) of 8.4 µM. It also gave an IC50 [4] of 35 µM.
In the case of CCn1ncc(CN(C)C(=O)c2cc(-c3cc(NC(=O)CNC)cc(C)n3)nc3ccc(Cl)cc23)c1C [Compound 397], the IC50 [1] is reported as 0.043 µM, the IC50 [2] is reported as 0.13 µM and the IC50 ([3]; Homo sapiens, 647-V) is reported as 0.16 µM. It also gave an IC50 [4] of 0.042 µM.
CCn1ncc(CN(C)C(=O)c2nc(-c3cc(C)nc(CNC)c3)nc3ccc(Cl)cc23)c1C [Compound 398] was tested, and the IC50 [1] was 24 µM, the IC50 [2] was 8.2 µM and the IC50 ([3]; Homo sapiens, 647-V) was 4.8 µM. It also gave an IC50 [4] of 22 µM.
CCn1ncc(CN(C)C(=O)c2cc(-c3cc4[nH]cnc4cn3)nc3ccc(Cl)cc23)c1C [Compound 400] was tested, and the IC50 [1] was 0.029 µM, the IC50 [2] was 0.11 µM and the IC50 ([3]; Homo sapiens, 647-V) was 0.11 µM. For the same compound, the IC50 [4] was 0.013 µM.
Compound CCn1ncc(CN(C)C(=O)c2cc(-c3cc4[nH]ncc4c(C)n3)nc3ccc(Cl)cc23)c1C [Compound 401] has an IC50 [1] of 0.056 µM, an IC50 [2] of 0.12 µM and an IC50 ([3]; Homo sapiens, 647-V) of 0.13 µM. It also gave an IC50 [4] of 0.018 µM.
With CCn1ncc(CN(C)C(=O)c2nc(-c3ccc4c(N)[nH]nc4c3C)nc3ccc(Cl)cc23)c1C [Compound 402] the IC50 [1] was 0.062 µM, the IC50 [2] was 0.35 µM and the IC50 ([3]; Homo sapiens, 647-V) was 0.31 µM. The IC50 [4] was 0.3 µM.
With CCn1ncc(CN(C)C(=O)c2nc(-c3cc(CNC)nn3C)nc3ccc(Cl)cc23)c1C [Compound 403] the IC50 [1] was 50 µM, the IC50 [2] was 12 µM and the IC50 ([3]; Homo sapiens, 647-V) was 10 µM. It also gave an IC50 [4] of 22 µM.
In the case of CCn1ncc(CN(C)C(=O)c2cc(-c3ccc(NC)c(C)n3)nc3ccc(Cl)cc23)c1C [Compound 404], the IC50 [1] is reported as 0.0025 µM, the IC50 [2] is reported as 0.17 µM and the IC50 ([3]; Homo sapiens, 647-V) is reported as 0.12 µM. The IC50 [4] was 0.023 µM.
CCn1ncc(CN(C)C(=O)c2nc(-n3cc(CCN(C)C)cn3)nc3ccc(Cl)cc23)c1C [Compound 405] showed an IC50 [1] of 5.7 µM, an IC50 [2] of 1.6 µM and an IC50 ([3]; Homo sapiens, 647-V) of 1.7 µM. For the same compound, the IC50 [4] was 2.7 µM.
CCn1ncc(CN(C)C(=O)c2nc(-c3cc(C#N)n(C)n3)nc3ccc(Cl)cc23)c1C [Compound 406] gave an IC50 [1] of 50 µM, an IC50 [2] of 20 µM and an IC50 ([3]; Homo sapiens, 647-V) of 20 µM. The IC50 [4] was 50 µM.
CCn1ncc(CN(C)C(=O)c2cc(-c3ccc(OCCNC)c(Cl)c3)nc3ccc(P(C)(C)=O)cc23)c1C [Compound 407] gave an IC50 [1] of 2.1 µM, an IC50 [2] of 18 µM and an IC50 [3] of 7.4 µM. It also gave an IC50 [4] of 0.7 µM.
CCn1ncc(CN(C)C(=O)c2nc(-c3cc(C)cc(NCC(=O)NC)c3)nc3ccc(Cl)cc23)c1C [Compound 408] was tested, and the IC50 [1] was 0.43 µM, the IC50 [2] was 1.1 µM and the IC50 ([3]; Homo sapiens, 647-V) was 0.89 µM. It also gave an IC50 [4] of 0.95 µM.
Work on CCn1ncc(CN(C)C(=O)c2cc(-c3cc(NCCNC)cc(C)n3)nc3ccc(Cl)cc23)c1C [Compound 409] yielded an IC50 [1] of 0.074 µM, an IC50 [2] of 0.23 µM and an IC50 ([3]; Homo sapiens, 647-V) of 0.054 µM. It also gave an IC50 [4] of 0.023 µM.
For CCn1ncc(CN(C)C(=O)c2cc(-c3cc(C)c(OCCNC)cn3)nc3ccc(Cl)cc23)c1C [Compound 410], the IC50 [1] was 5.5 µM, the IC50 [2] was 6.1 µM and the IC50 ([3]; Homo sapiens, 647-V) was 2.8 µM. For the same compound, the IC50 [4] was 1.4 µM.
With CCn1ncc(CN(C)C(=O)c2cc(-c3cnc(OCCNC)cn3)nc3ccc(Cl)cc23)c1C [Compound 413] the IC50 [1] was 21 µM, the IC50 [2] was 6.4 µM and the IC50 ([3]; Homo sapiens, 647-V) was 5 µM. It also gave an IC50 [4] of 7.4 µM.
For CCn1ncc(CN(C)C(=O)c2nc(-c3ccc(OCCNC)nn3)nc3ccc(Cl)cc23)c1C [Compound 414], the IC50 [1] was 30 µM, the IC50 [2] was 20 µM and the IC50 ([3]; Homo sapiens, 647-V) was 20 µM. For the same compound, the IC50 [4] was 44 µM.
